Assay results taken from patent publication US5597832A (Abbott Laboratories, priority 1994, dated 1997).
Entries after “also recorded” stand apart in the source; their conditions may differ. Structures can show the parent of a compound that is named as a salt. Where two headings read alike, the source gives them in different places.

Tests used:
[1] = system: striatal dopamine receptors; assay: animal or person; assay type: in vivo; conditions: Rattus norvegicus, sc, read-out: EC50, rotation behavior
dopamine D-1 receptor = dopamine D-1 receptor (Rattus norvegicus, UniProt P18901); assay: biochemical
dopamine D-1 receptor, sequence (P18901 whole entry): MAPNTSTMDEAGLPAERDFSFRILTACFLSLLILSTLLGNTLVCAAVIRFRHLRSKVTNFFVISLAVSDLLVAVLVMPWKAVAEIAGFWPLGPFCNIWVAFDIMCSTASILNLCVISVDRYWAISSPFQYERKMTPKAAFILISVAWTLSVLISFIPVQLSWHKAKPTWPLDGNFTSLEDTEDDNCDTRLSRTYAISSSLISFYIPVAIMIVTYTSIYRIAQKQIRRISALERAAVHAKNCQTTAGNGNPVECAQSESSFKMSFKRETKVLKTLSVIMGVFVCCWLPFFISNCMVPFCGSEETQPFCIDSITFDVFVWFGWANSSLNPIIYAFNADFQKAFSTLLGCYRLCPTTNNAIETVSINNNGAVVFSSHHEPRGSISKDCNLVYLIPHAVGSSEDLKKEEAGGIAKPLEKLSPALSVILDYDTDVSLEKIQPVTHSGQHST

dopamine D-2 receptor = target: T1, dopamine D-2 receptor (Rattus norvegicus, UniProt P61169); assay: D-2 receptor competitive binding, [3H]-spiroperidol, homogenized rat caudate; conditions: rat caudate, [3H]-spiroperidol; read-out: D-2 Ki
T1 construct: Homogenized rat caudate was the source of the D-2 receptors; from tissue; host or cells: rat caudate homogenate
T1 sequence (P61169 whole entry): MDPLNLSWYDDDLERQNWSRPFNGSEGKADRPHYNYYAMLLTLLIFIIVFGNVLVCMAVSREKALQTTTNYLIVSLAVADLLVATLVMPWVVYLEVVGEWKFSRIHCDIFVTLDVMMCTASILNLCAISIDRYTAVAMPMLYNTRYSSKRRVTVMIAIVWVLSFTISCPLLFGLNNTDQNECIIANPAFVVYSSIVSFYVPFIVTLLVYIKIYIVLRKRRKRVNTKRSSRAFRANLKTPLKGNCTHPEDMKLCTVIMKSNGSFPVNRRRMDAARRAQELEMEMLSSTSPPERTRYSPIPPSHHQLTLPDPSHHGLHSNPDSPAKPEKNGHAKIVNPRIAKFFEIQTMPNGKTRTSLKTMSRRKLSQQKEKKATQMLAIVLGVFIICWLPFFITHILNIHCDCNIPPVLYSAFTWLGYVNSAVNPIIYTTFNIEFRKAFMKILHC

D-1 receptor = assay: Adenylate cyclase assay (agonist activity, cAMP); assay type: biochemical, goldfish retina or rat striatum
[2] = goldfish retina or rat striatum homogenate

Row | Compound | ED50 [1] [µmol/kg] | Ki (dopamine D-1 receptor) [nM] | Ki (dopamine D-2 receptor) [nM] | EC50 (D-1 receptor) [nM] | Intrinsic Activity (%) (D-1 receptor) | EC50 (D-1 receptor; [2]) [nM] | agonist/antagonist properties at dopamine receptor (D-1 receptor; hydrobromide)
1 | CC(C)(C)c1cc2c(s1)CN[C@H]1CCc3cc(O)c(O)cc3[C@H]21 (single isomer, unassigned) [Example 24, (-)-trans-2-(1,1-Dimethylethyl)-4,5,5a,6,7,11b-hexahydro-3-thia-5-aza-cyclopent-1-ena[c]-phenanthrene-9,10-diol] | 0.04 | – | – | – | – | – | –
2 | Oc1cc2c(cc1O)[C@H]1c3cc(-c4ccccc4)oc3CN[C@@H]1CC2 (relative stereo) [Example 42, trans-2-Phenyl-4,5,5a,6,7,11b-hexahydro-3-oxa-5-aza-cyclopent-1-ena[c]phenanthrene-9,10-diol hydrochloride] | – | 453 | 640 | 78 | 59 | – | –
3 | CCCc1nc2c(o1)[C@@H]1c3cc(O)c(O)cc3CC[C@H]1NC2 (relative stereo) [Example 29, trans-2-Propyl-4,5,5a,6,7,11b-hexahydro-1-oxa-3,5-diaza-cyclopent-2-ena[c]phenanthrene-9,10-diol dihydrobromide] | 0.41 | – | – | 28 | 81 | – | –
4 | CCCc1cc2c(s1)CNC1CCc3cc(OC(C)=O)c(OC(C)=O)cc3C21 (single isomer, unassigned; (-)) [Example 48, (-)-trans-9,10-Diacetyloxy-2-propyl-4,5,5a,6,7,11b-hexahydro-3-thia-5-aza-cyclopent-1-ena[c]phenanthrene hydrochloride] | 0.04 | – | – | – | – | – | –
5 | Oc1cc2c(cc1O)[C@H]1c3cc(-c4cccs4)sc3CN[C@@H]1CC2 (relative stereo) [Example 37, trans-2-(2-Thiophenyl)-4,5,5a,6,7,11b-hexahydro-3-thia-5-aza-cyclopent-1-ena[c]phenanthrene-9,10-diol hydrobromide] | – | 710 | 3190 | – | 65 | 332 | –
6 | CCCc1nc2c(s1)CN[C@@H]1CCc3cc(O)c(O)cc3[C@@H]21 (relative stereo) [Example 54, trans-2-propyl-4,5,5a,6,7,11b-hexahydro-1,5-diaza-3-thia-cyclopent-1-ena[c]phenanthrene-9,10-diol dihydrobromide] | 0.21 | 220 | > 5000 | – | 67 | 580 | –
7 | CC(C)c1cc2c(s1)[C@@H]1c3cc(O)c(O)cc3CC[C@H]1NC2 (relative stereo) [Example 34, trans-2-Isopropyl-4,5,5a,6,7,11b-hexahydro-1-thia-5-aza-cyclopent-2-ena[c]phenanthrene-9,10-diol trifluoroacetate salt] | 0.04 | 4 | 420 | 16 | 80 | – | –
8 | 2-propyl-4,5,5a,6,7,11b-hexahydro-1-thia-5-aza-cyc! opent-2-ena[c]phenanthrene-10-ol hydrobromide [Example 44] | – | – | – | – | – | – | no agonist properties; also recorded: dopamine antagonist
9 | Oc1cc2c(cc1O)[C@@H]1c3sc(-c4ccccc4)cc3CN[C@H]1CC2 (relative stereo) [Example 19, trans-2-phenyl-4,5,5a,6,7,11b-hexahydro-1-thia-5-aza-cyclopent-2-ena[c]phenanthrene-9,10-diol hydrobromide] | – | 360 | 750 | 25 | 79 | – | –
10 | Oc1cc2c(cc1O)[C@H]1c3cc(CC4CCCC4)sc3CN[C@@H]1CC2 (relative stereo) [Example 39, trans-2-(Cyclopentylmethyl)-4,5,5a,6,7,11b-hexahydro-3-thia-5-aza-cyclopent-1-ena[c]phenanthrene-9,10-diol hydrobromide] | – | 450 | 1620 | – | 93 | 110 | –
11 | CCc1cc2c(o1)[C@@H]1c3cc(O)c(O)cc3CC[C@H]1NC2 (relative stereo) [Example 55, trans-2-ethyl-4,5,5a,6,7,11b-hexahydro-1-oxa-5-aza-cyclopent-2-ena[c]phenanthrene-9,10-diol hydrochloride] | 0.17 | 10 | 368 | 64 | 92 | – | –
12 | CCc1cc2c(s1)CN[C@H]1CCc3cc(O)c(O)cc3[C@H]21 (single isomer, unassigned) [Example 4, (-)-trans-2-ethyl-4,5,5a,6,7,11b-hexahydro-3-thia-5-aza-cyclopent-1-ena[c]phenanthrene-9,10-diol hydrobromide] | 0.04 | – | – | – | – | – | –
13 | CC(C)(C)Cc1cc2c(s1)CN[C@H]1CCc3cc(O)c(O)cc3[C@H]21 (relative stereo) [Example 10, trans-2-(2,2-Dimethylpropyl)-4,5,5a,6,7,11b-hexahydro-3-thia-5-aza-cyclopent-1-ena[c]-phenanthrene-9,10-diol] | – | 560 | 4600 | – | 50 | 216 | –
14 | CC(C)CCc1cc2c(s1)[C@@H]1c3cc(O)c(O)cc3CC[C@H]1NC2 (relative stereo) [Example 30, trans-2-(3-Methylbutyl)-4,5,5a,6,7,11b-hexahydro-1-thia-5-aza-cyclopent-2-ena[c]phenanthrene-9,10-diol hydrobromide] | > 1 | 62 | 560 | – | 70 | 105 | –
15 | CCc1cc2c(s1)CN[C@H]1CCc3cc(O)c(O)cc3[C@H]21 (relative stereo) [Example 3, trans-2-ethyl-4,5,5a,6,7,11b-hexahydro-3-thia-5-aza-cyclopent-1-ena[c]phenanthrene-9,10-diol hydrobromide] | 0.077 | – | – | – | – | – | –
16 | Cc1cc2c(s1)CN[C@H]1CCc3cc(O)c(O)cc3[C@H]21 (relative stereo) [Example 22, trans-2-methyl-4,5,5a,6,7,11b-hexahydro-3-thia-5-aza-cyclopent-1-ena[c]phenanthrene-9,10-diol hydrobromide] | 0.2 | – | – | – | – | – | –
17 | Oc1cc2c(cc1O)[C@H]1c3sc(C(F)(F)F)nc3CN[C@@H]1CC2 (relative stereo) [Example 28, trans-2-Trifluoromethyl-4,5,5a,6,7, 11b-hexahydro-1-thia-3,5-diaza-cyclopent-2-ena[c]phenanthrene-9,10-diol] | 0.4 | 52 | > 5000 | – | 77 | 202 | –
18 | CCCc1nc2c(s1)[C@H]1c3cc(O)c(O)cc3CC[C@@H]1NC2 (relative stereo) [Example 27, trans-2-propyl-4,5,5a,6,7,11b-hexahydro-1-thia-3,5-diaza-cyclopent-2-ena[c]phenanthrene-9,10-diol dihydrobromide] | > 1 | 11 | 210 | – | 93 | 120 | –
19 | CCCc1cc2c(s1)CN[C@H]1CCc3cc(O)c(O)cc3[C@H]21 (single isomer, unassigned) [Example 20, (-)-trans-2-propyl-4,5,5a,6,7,11b-hexahydro-3-thia-5-aza-cyclopent-1-ena[c]phenanthrene-9,10-diol hydrobromide] | 0.11 | – | – | – | – | – | –
20 | Cc1cc2c(s1)CN[C@H]1CCc3cc(O)c(O)cc3[C@H]21 (single isomer, unassigned) [Example 23, (-)-trans-2-Methyl-4,5,5a,6,7,11b-hexahydro-3-thia-5-aza-cyclopent-1-ena[c]-phenanthrene-9,10-diol] | 0.05 | – | – | – | – | – | –
21 | CCCc1nc2c(o1)CN[C@@H]1CCc3cc(O)c(O)cc3[C@@H]21 (relative stereo) [Example 53, trans-2-propyl-4,5,5a,6,7,11b-hexahydro-1,5-diaza-3-oxa-cyclopent-1-ena[c]phenanthrene-9,10-diol dihydrobromide] | – | 154 | 230 | – | 83 | 1000 | –
22 | CCCc1csc2c1CN[C@@H]1CCc3cc(O)c(O)cc3[C@@H]21 (relative stereo) [Example 52, trans-3-propyl-4,5,5a,6,7,11b-hexahydro-1-thia-5-aza-cyclopent-2-ena[c]phenanthrene-9,10-diol hydrochloride] | 0.32 | – | – | – | – | – | –
23 | CCCCCCc1cc2c(s1)CN[C@@H]1CCc3cc(O)c(O)cc3[C@@H]21 (relative stereo) [Example 38, trans-2-Hexyl-4,5,5a,6,7,11b-hexahydro-3-thia-5-aza-cyclopent-1-ena[c]phenanthrene-9,10-diol TFA salt] | – | 1430 | 2580 | – | 58 | 285 | –
24 | CCCc1cc2c(s1)CN[C@H]1CCc3cc(O)c(O)cc3[C@H]21 (relative stereo) [Example 5, trans-2-propyl-4,5,5a,6,7,11b-hexahydro-3-thia-5-aza-cyclopent-1-ena[c]phenanthrene-9,10-diol hydrobromide] | 0.15 | – | – | – | – | – | –
25 | CCCc1cc2c(o1)CN[C@@H]1CCc3cc(O)c(O)cc3[C@@H]21 (relative stereo) [Example 41, trans-2-Propyl-4,5,5a,6,7,11b-hexahydro-3-oxa-5-aza-cyclopent-1-ena[c]phenanthrene-9,10-diol] | 0.07 | 21 | 600 | 46 | 87 | – | –
26 | CC(C)(C)c1cc2c(s1)CN[C@H]1CCc3cc(O)c(O)cc3[C@H]21 (relative stereo) [Example 6, trans-2-(1,1-dimethylethyl)-4,5,5a,6,7,11b-hexahydro-3-thia-5-aza-cyclopent-1-ena[c]phenanthrene-9,10-diol hydrobromide] | 0.12 | – | – | – | – | – | –
27 | Cc1ccc(-c2cc3c(s2)CNC2CCc4cc(O)c(O)cc4C32)cc1 (stereo not shown) [Example 46, 2-(4-Methylphenyl)-4,5,5a,6,7,11b-hexahydro-3-thia-5-aza-cyclopent-1-ena[c]phenanthrene-9,10-diol hydrobromide] | – | > 5000 | > 5000 | – | – | – | –
